From patent US20260232846A1, “FLUORESCENT PROBE COMPOUND AND COMPOSITE COMPRISING SAME” (KOREA RESEARCH INSTITUTE OF BIOSCIENCE AND BIOTECHNOLOGY, priority 2022, published 2026)

Legend:
MC3T3-E1 cells [1] = test: Dephosphorylation of probe compounds on cell-cultured CDHA (fluorescence images, radiant efficiency); type: cell-based; conditions: CDHA specimen cultured with cells, treated with probe; diffused ALP hydrolysis increased over time in MC3T3-E1 cells
Description: In order to confirm the dephosphorylation of the fluorescent probe compounds by ALP or pH change on CDHA, three bare CDHA specimens and three CDHA specimens cultured with MC3T3-E1 cells and Raw264.7 cells were prepared, the results of examining fluorescence images obtained by treating, the three specimens, one of which was treated with the bone-forming activity marker-sensitive fluorescent probe compound of Synthetic Example 1, another of which was treated with the bone-resorbing activity marker-sensitive fluorescent probe compound of Synthetic Example 2, and the remaining one of which was treated with both the bone-forming activity marker-sensitive fluorescent probe compound and the bone-resorbing activity marker-sensitive fluorescent probe compound, were illustrated in FIG. 11, and the results of measuring fluorescence efficiency (radiant efficiency) in each of six specimens were illustrated in FIGS. 12A and 12B.

MC3T3-E1 cells [2] = tested on: MC3T3-E1 cells

Row | Molecule | fluorescence signal (radiant efficiency) (MC3T3-E1 cells [1]) | cell proliferation (%) (Raw264.7 cells) | cell proliferation (%) (MC3T3-E1 cells [2])
1 | CC1(C)C(/C=C/C2=C3Oc4cc(OCc5ccc(OP(=O)(O)O)cc5)ccc4C=C3CCC2)=[N+](CCCCC(=O)NCCCC(O)(P(=O)(O)O)P(=O)(O)O)c2ccccc21 [compound 1-7] | high fluorescence signal |  | 
2 | calcium deficient hydroxyapatite [CDHA] |  | ~170 | ~170
